Experimental data as given in ChEMBL document CHEMBL4346705, “(±)-trans-Dihydronarciclasine and (±)-trans-dihydrolycoricidine analogues modified in their ring A: Evaluation of their anticancer activity and a SAR study” (2019).

Legend:
Format in all cases: functional
PC-3 = experiment: Antiproliferative activity against human PC3 cells assessed as cell viability at 10^-5 M incubated for 48 hrs by sulforhodamine B assay relative to control; conditions: PC-3, 48 h, read-out: Activity
SK-OV-3 = experiment: Antiproliferative activity against human SKOV3 cells assessed as cell viability at 10^-5 M incubated for 48 hrs by sulforhodamine B assay relative to control; conditions: SK-OV-3, 48 h, read-out: Activity
HCT-116 = experiment: Antiproliferative activity against human HCT116 cells assessed as cell viability at 10^-5 M incubated for 48 hrs by sulforhodamine B assay relative to control; conditions: HCT-116, 48 h, read-out: Activity
SF-539 = experiment: Antiproliferative activity against human SF539 cells assessed as cell viability at 10^-5 M incubated for 48 hrs by sulforhodamine B assay relative to control; conditions: SF-539, 48 h, read-out: Activity
EKVX = experiment: Antiproliferative activity against human EKVX cells assessed as cell viability at 10^-5 M incubated for 48 hrs by sulforhodamine B assay relative to control; conditions: read-out: Activity
T47D = experiment: Antiproliferative activity against human T47D cells assessed as cell viability at 10^-5 M incubated for 48 hrs by sulforhodamine B assay relative to control; conditions: read-out: Activity
ACHN = experiment: Antiproliferative activity against human ACHN cells assessed as cell viability at 10^-5 M incubated for 48 hrs by sulforhodamine B assay relative to control; conditions: read-out: Activity
RXF 393 = experiment: Antiproliferative activity against human RXF393 cells assessed as cell viability at 10^-5 M incubated for 48 hrs by sulforhodamine B assay relative to control; conditions: RXF 393, 48 h, read-out: Activity
NCI-H226 = experiment: Antiproliferative activity against human NCI-H226 cells assessed as cell viability at 10^-5 M incubated for 48 hrs by sulforhodamine B assay relative to control; conditions: NCI-H226, 48 h, read-out: Activity
CCRF-CEM = experiment: Antiproliferative activity against human CCRF-CEM cells assessed as cell viability at 10^-5 M incubated for 48 hrs by sulforhodamine B assay relative to control; conditions: read-out: Activity
UACC-62 = experiment: Antiproliferative activity against human UACC62 cells assessed as cell viability at 10^-5 M incubated for 48 hrs by sulforhodamine B assay relative to control; conditions: UACC-62, 48 h, read-out: Activity
SF-295 = experiment: Antiproliferative activity against human SF295 cells assessed as cell viability at 10^-5 M incubated for 48 hrs by sulforhodamine B assay relative to control; conditions: SF-295, 48 h, read-out: Activity
OVCAR-8 = experiment: Antiproliferative activity against human OVCAR8 cells assessed as cell viability at 10^-5 M incubated for 48 hrs by sulforhodamine B assay relative to control; conditions: OVCAR-8, 48 h, read-out: Activity
UO-31 = experiment: Antiproliferative activity against human UO31 cells assessed as cell viability at 10^-5 M incubated for 48 hrs by sulforhodamine B assay relative to control; conditions: UO-31, 48 h, read-out: Activity
SN12C = experiment: Antiproliferative activity against human SN12C cells assessed as cell viability at 10^-5 M incubated for 48 hrs by sulforhodamine B assay relative to control; conditions: read-out: Activity
TK-10 = experiment: Antiproliferative activity against human TK10 cells assessed as cell viability at 10^-5 M incubated for 48 hrs by sulforhodamine B assay relative to control; conditions: TK-10, 48 h, read-out: Activity
Hs-578T = experiment: Antiproliferative activity against human Hs 578T cells assessed as cell viability at 10^-5 M incubated for 48 hrs by sulforhodamine B assay relative to control; conditions: read-out: Activity
UACC-257 = experiment: Antiproliferative activity against human UACC257 cells assessed as cell viability at 10^-5 M incubated for 48 hrs by sulforhodamine B assay relative to control; conditions: UACC-257, 48 h, read-out: Activity
OVCAR-5 = experiment: Antiproliferative activity against human OVCAR5 cells assessed as cell viability at 10^-5 M incubated for 48 hrs by sulforhodamine B assay relative to control; conditions: OVCAR-5, 48 h, read-out: Activity
NCI-H522 = experiment: Antiproliferative activity against human NCI-H522 cells assessed as cell viability at 10^-5 M incubated for 48 hrs by sulforhodamine B assay relative to control; conditions: NCI-H522, 48 h, read-out: Activity
A498 = experiment: Antiproliferative activity against human A498 cells assessed as cell viability at 10^-5 M incubated for 48 hrs by sulforhodamine B assay relative to control; conditions: A498, 48 h, read-out: Activity
SW-620 = experiment: Antiproliferative activity against human SW620 cells assessed as cell viability at 10^-5 M incubated for 48 hrs by sulforhodamine B assay relative to control; conditions: SW-620, 48 h, read-out: Activity
786-0 = experiment: Antiproliferative activity against human 786-0 cells assessed as cell viability at 10^-5 M incubated for 48 hrs by sulforhodamine B assay relative to control; conditions: 786-0, 48 h, read-out: Activity
K562 = experiment: Antiproliferative activity against human K562 cells assessed as cell viability at 10^-5 M incubated for 48 hrs by sulforhodamine B assay relative to control; conditions: K562, 48 h, read-out: Activity
NCI-H460 = experiment: Antiproliferative activity against human NCI-H460 cells assessed as cell viability at 10^-5 M incubated for 48 hrs by sulforhodamine B assay relative to control; conditions: NCI-H460, 48 h, read-out: Activity
SNB-19 = experiment: Antiproliferative activity against human SNB19 cells assessed as cell viability at 10^-5 M incubated for 48 hrs by sulforhodamine B assay relative to control; conditions: SNB-19, 48 h, read-out: Activity
NCI-H23 = experiment: Antiproliferative activity against human NCI-H23 cells assessed as cell viability at 10^-5 M incubated for 48 hrs by sulforhodamine B assay relative to control; conditions: NCI-H23, 48 h, read-out: Activity
SK-MEL-2 = experiment: Antiproliferative activity against human SK-MEL-2 cells assessed as cell viability at 10^-5 M incubated for 48 hrs by sulforhodamine B assay relative to control; conditions: SK-MEL-2, 48 h, read-out: Activity
NCI/ADR-RES = experiment: Antiproliferative activity against human NCI-ADR-RES cells assessed as cell viability at 10^-5 M incubated for 48 hrs by sulforhodamine B assay relative to control; conditions: read-out: Activity
MOLT-4 = experiment: Antiproliferative activity against human MOLT4 cells assessed as cell viability at 10^-5 M incubated for 48 hrs by sulforhodamine B assay relative to control; conditions: MOLT-4, 48 h, read-out: Activity
SR = experiment: Antiproliferative activity against human SR cells assessed as cell viability at 10^-5 M incubated for 48 hrs by sulforhodamine B assay relative to control; conditions: read-out: Activity
Malme-3M = experiment: Antiproliferative activity against human MALME-3M cells assessed as cell viability at 10^-5 M incubated for 48 hrs by sulforhodamine B assay relative to control; conditions: read-out: Activity
NCI-H322M = experiment: Antiproliferative activity against human NCI-H322M cells assessed as cell viability at 10^-5 M incubated for 48 hrs by sulforhodamine B assay relative to control; conditions: read-out: Activity

Compound | viability at 10 µM (PC-3) | viability at 10 µM (SK-OV-3) | viability at 10 µM (HCT-116) | viability at 10 µM (SF-539) | viability at 10 µM (EKVX) | viability at 10 µM (T47D) | viability at 10 µM (ACHN) | viability at 10 µM (RXF 393) | viability at 10 µM (NCI-H226) | viability at 10 µM (CCRF-CEM) | viability at 10 µM (UACC-62) | viability at 10 µM (SF-295) | viability at 10 µM (OVCAR-8) | viability at 10 µM (UO-31) | viability at 10 µM (SN12C) | viability at 10 µM (TK-10) | viability at 10 µM (Hs-578T) | viability at 10 µM (UACC-257) | viability at 10 µM (OVCAR-5) | viability at 10 µM (NCI-H522) | further results
O=C1NC2C(CC(O)C(O)C2O)c2cc3c(c(O)c21)OCCO3 (racemic) | -9.66% | -10.9% | -3.3% | -24.1% | -14.3% | -15.8% | -14.5% | -24.2% | -11.3% | -6.07% | -13.3% | -14.9% | -13.8% | -19.7% | -9.95% | -11.9% | -9.44% | -22.2% | 3% | -36.1% | viability at 10 µM (A498): -29.7%; viability at 10 µM (SW-620): 4.85%; viability at 10 µM (786-0): -1.5%; viability at 10 µM (K562): 1.56%; viability at 10 µM (NCI-H460): 1.26%; viability at 10 µM (SNB-19): -10.4%; viability at 10 µM (NCI-H23): -40.9%; viability at 10 µM (SK-MEL-2): -48.7%; viability at 10 µM (NCI/ADR-RES): -0.44%; viability at 10 µM (MOLT-4): -0.8%; viability at 10 µM (SR): -2.37%; viability at 10 µM (Malme-3M): -23.8%; viability at 10 µM (NCI-H322M): -24.3%
COc1c2c(cc3c1C(=O)NC1C3CC(O)C(O)C1O)OCCO2 (racemic) | 97.7% | 98.6% | 102% | 106% | 98.2% | 84.9% | 103% | 102% | 92.7% | 105% | 96.7% | 99.6% | 100% | 86.4% | 103% | 95.7% | 96.2% | 98.8% | 105% | 93.5% | viability at 10 µM (A498): 104%; viability at 10 µM (SW-620): 104%; viability at 10 µM (786-0): 97.4%; viability at 10 µM (K562): 95.6%; viability at 10 µM (NCI-H460): 109%; viability at 10 µM (SNB-19): 102%; viability at 10 µM (NCI-H23): 104%; viability at 10 µM (SK-MEL-2): 100%; viability at 10 µM (NCI/ADR-RES): 113%; viability at 10 µM (MOLT-4): 99.6%; viability at 10 µM (SR): 92.1%; viability at 10 µM (Malme-3M): 106%; viability at 10 µM (NCI-H322M): 93.5%
O=C1NC2C(CC(O)C(O)C2O)c2cc3c(cc21)OCCO3 (racemic) | 103% | 103% | 95.5% | 101% | 97.4% | 104% | 105% | 116% | 97.7% | 106% | 103% | 101% | 107% | 93.2% | 105% | 103% | 96.9% | 107% | 107% | 101% | viability at 10 µM (A498): 108%; viability at 10 µM (SW-620): 104%; viability at 10 µM (786-0): 102%; viability at 10 µM (K562): 104%; viability at 10 µM (NCI-H460): 107%; viability at 10 µM (SNB-19): 102%; viability at 10 µM (NCI-H23): 107%; viability at 10 µM (SK-MEL-2): 109%; viability at 10 µM (NCI/ADR-RES): 107%; viability at 10 µM (MOLT-4): 103%; viability at 10 µM (SR): 107%; viability at 10 µM (Malme-3M): 105%; viability at 10 µM (NCI-H322M): 104%
